Assay results reported in patent US8697687B2, “Treating diseases mediated by blockade of the epithelial sodium channel with pyrazine-2-carboxamide derivatives” (Novartis AG, priority 2007, dated 2014).
Like-named read-outs stand apart in the source and are kept apart here.

Biological target: T1, epithelial sodium channel (ENaC) (Homo sapiens, UniProt P37088+P51168+P51170)
T1 construct: host or cells: primary Human Bronchial Epithelial cells (HBECs), air-liquid interface culture
T1 sequence (P37088 1-669): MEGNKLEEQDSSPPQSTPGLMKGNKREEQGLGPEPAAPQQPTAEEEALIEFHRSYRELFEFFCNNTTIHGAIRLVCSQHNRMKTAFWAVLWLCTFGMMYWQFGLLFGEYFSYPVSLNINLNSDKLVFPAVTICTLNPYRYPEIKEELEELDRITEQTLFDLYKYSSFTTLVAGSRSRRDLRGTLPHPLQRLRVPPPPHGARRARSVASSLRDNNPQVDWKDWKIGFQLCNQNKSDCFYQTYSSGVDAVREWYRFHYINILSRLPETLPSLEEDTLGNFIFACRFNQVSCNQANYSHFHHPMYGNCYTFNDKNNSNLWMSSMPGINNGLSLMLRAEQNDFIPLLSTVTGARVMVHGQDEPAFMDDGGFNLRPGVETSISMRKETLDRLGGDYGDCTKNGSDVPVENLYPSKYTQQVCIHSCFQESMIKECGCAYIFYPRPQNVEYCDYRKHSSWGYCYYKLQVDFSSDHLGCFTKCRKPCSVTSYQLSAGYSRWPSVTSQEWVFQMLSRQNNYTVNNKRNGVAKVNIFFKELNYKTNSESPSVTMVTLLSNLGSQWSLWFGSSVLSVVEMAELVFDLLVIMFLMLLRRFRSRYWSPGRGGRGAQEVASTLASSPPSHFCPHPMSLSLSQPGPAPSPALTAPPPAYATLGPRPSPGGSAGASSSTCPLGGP
T1 sequence (P51168 1-640): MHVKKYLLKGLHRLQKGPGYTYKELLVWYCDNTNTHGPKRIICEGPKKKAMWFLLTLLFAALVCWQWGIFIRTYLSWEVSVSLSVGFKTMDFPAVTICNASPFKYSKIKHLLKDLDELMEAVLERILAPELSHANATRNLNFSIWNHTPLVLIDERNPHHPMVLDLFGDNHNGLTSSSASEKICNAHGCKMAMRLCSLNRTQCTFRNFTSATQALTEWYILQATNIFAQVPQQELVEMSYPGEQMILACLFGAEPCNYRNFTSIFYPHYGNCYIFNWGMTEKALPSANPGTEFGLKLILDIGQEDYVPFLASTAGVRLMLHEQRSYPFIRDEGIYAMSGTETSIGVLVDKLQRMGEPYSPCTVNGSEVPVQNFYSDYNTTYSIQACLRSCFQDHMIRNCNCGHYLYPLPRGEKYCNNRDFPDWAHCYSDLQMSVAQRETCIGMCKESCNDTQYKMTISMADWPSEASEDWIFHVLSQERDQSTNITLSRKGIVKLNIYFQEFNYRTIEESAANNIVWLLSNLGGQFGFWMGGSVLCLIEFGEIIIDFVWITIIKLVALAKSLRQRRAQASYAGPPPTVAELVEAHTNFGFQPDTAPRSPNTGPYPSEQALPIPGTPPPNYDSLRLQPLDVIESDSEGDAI
T1 sequence (P51170 1-649): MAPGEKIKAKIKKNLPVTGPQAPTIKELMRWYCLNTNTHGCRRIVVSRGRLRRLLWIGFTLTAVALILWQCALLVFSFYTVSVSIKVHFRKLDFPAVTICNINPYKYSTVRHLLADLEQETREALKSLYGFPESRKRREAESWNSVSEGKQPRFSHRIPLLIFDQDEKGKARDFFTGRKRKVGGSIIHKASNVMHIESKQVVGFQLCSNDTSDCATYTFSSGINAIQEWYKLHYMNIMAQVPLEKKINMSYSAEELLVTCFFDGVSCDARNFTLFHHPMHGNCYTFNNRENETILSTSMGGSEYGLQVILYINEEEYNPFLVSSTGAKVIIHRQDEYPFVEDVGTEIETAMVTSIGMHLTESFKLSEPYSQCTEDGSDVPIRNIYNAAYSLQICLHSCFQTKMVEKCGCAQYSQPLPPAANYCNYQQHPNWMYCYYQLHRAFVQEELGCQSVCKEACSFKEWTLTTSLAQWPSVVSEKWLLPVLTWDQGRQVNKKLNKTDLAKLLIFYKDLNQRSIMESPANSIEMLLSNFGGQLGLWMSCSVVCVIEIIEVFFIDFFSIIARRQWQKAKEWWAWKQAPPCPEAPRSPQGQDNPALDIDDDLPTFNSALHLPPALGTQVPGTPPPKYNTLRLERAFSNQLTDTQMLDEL
Experiment: Short circuit current (ISC) measurements in Human Bronchial Epithelial cells, inhibition of amiloride-sensitive ISC
Assay type: cell-based
Experimental: Compounds of formula (I) and their pharmaceutically acceptable salts, hereinafter referred to alternatively as “agents of the invention”, are useful as pharmaceuticals. In particular, the compounds have good ENaC blocker activity and may be tested in the following assays.
Human Bronchial Epithelial cells (HBECs) (Cambrex) were cultured under air-liquid interface conditions to provide a well differentiated mucociliary phenotype.
HBECs were cultured using a modification of the method described by Gray and colleagues (Gray et al., 1996). Cells were seeded in plastic T-162 flasks and were grown in bronchial epithelial cell growth medium (BEGM; Cambrex) supplemented with bovine pituitary extract (52 μg/mL), hydrocortisone (0.5 μg/mL), human recombinant epidermal growth factor (0.5 ng/mL), epinephrine (0.5 μg/mL), transferrin (10 μg/mL), insulin (5 μg/mL), retinoic acid (0.1 μg/mL), triiodothyronine ([…]), gentamycin (50 μg/mL) and amphotericin B (50 ng/mL). Medium was changed every 48 hours until cells were 90% confluent. Cells were then passaged and seeded (8.25×10^5 cells/insert) on polycarbonate Snapwell inserts (Costar) in differentiation media containing 50% DMEM in BEGM with the same supplements as above but without triiodothyronine and a final retinoic acid concentration of 50 nM (all-trans retinoic acid). Cells were maintained submerged for the first 7 days in culture, after which time they were exposed to an apical air interface for the remainder of the culture period. At this time, media was changed to DMEM:F12 media containing 2% v/v Ultroser G for the remainder of culture. Amphotericin B was removed from all media 3 feeds prior to use in the Using Chambers. Cells were used between days 7 and 21 after establishment of the apical-air interface. At all stages of culture, cells were maintained at 37° C. in 5% CO2 in an air incubator.
Short Circuit Current (ISC) Measurements
Snapwell inserts were mounted in Vertical Diffusion Chambers (Costar) and were bathed with continuously gassed Ringer solution (5% CO2 in O2; pH 7.4) maintained at 37° C. containing (in mM): 120 NaCl, 25 NaHCO3, 3.3 KH2PO4, 0.8 K2HPO4, 1.2 CaCl2, 1.2 MgCl2, and 10 glucose. The solution osmolarity was between 280 and 300 mOsmol/kg H2O for all physiological salt solutions used. Cells were voltage clamped to 0 mV (model EVC4000; WPI). RT was measured by applying a 1- or 2-mV pulse at 30-s intervals and calculating RT by Ohm's law. Data were recorded using a PowerLab workstation (ADInstruments).
Test compounds were prepared as a 10 mM stock solution in DMSO (95%). Serial 3-fold dilutions were freshly prepared in an appropriate vehicle (distilled H2O or Ringers solution). The initial concentration was added to the apical chamber as a 1000× concentrate in 5 μL, resulting in a final 1× concentration the 5 mL volume of the Ussing chamber. Subsequent additions of compound were added in a 3.3 μL volume of the 1000× serially diluted stock solution. At the completion of the concentration-response experiment, amiloride (10 μM) was added into the apical chamber to enable the total amiloride-sensitive current to be measured. An amiloride control IC50 was established at the start of each experiment.
Results are expressed as the mean % inhibition of the amiloride-sensitive ISC. Concentration-response curves were plotted and IC50 values generated using GraphPad Prism 3.02. Cell inserts were typically run in duplicate and the IC50 calculated on the mean % inhibition data.

[1] = inhibition of the amiloride-sensitive ISC, Human Bronchial Epithelial cells (HBECs) at air-liquid interface, compound added to apical chamber, read-out: IC50

CC(C)(C)OC(=O)c1ccc(C(=O)N2CCC3(CC2)CN/C(=N\C(=O)c2nc(Cl)c(N)nc2N)N3)cc1 [Example 76, 4-{2-[(E)-3,5-Diamino-6-chloro-pyrazine-2-carbonylimino]-1,3,8-triaza-spiro[4.5]decane-8-carbonyl}-benzoic acid tert-butyl ester]
IC50 [1]: 12 nM

Nc1nc(N)c(C(=O)/N=C2\NCC3(CCN(C(=O)c4ccc(C(=O)N5CCC6(CC5)CN/C(=N\C(=O)c5nc(Cl)c(N)nc5N)N6)cc4)CC3)N2)nc1Cl [Example 96]
IC50: 37 nM

CC(C)NC(=O)Nc1ccc(C(=O)N2CCC3(CC2)CN/C(=N\C(=O)c2nc(Cl)c(N)nc2N)N3)cc1 [Example 64, 3,5-Diamino-6-chloro-pyrazine-2-carboxylic acid [8-[4-(3-isopropyl-ureido)-benzoyl]-1,3,8-triaza-spiro[4.5]dec-(2E)-ylidene]-amide]
IC50 [1]: 25.5 nM

Cc1ccc(S(=O)(=O)N[C@@H](Cc2ccccc2)C(=O)N2CCC3(CC2)CN/C(=N\C(=O)c2nc(Cl)c(N)nc2N)N3)cc1 [Example 39, 3,5-Diamino-6-chloro-pyrazine-2-carboxylic acid [8-[(S)-3-phenyl-2-(toluene-4-sulfonylamino)-propionyl]-1,3,8-triaza-spiro[4.5]dec-(2E)-ylidene]-amide]
IC50 [1]: 5.5 nM

CCOC(=O)C1CCCN(S(=O)(=O)c2cccc(C(=O)N3CCC4(CC3)CN/C(=N\C(=O)c3nc(Cl)c(N)nc3N)N4)c2)C1 (centres unmarked) [Example 128, 1-(3-{2-[(E)-3,5-Diamino-6-chloro-pyrazine-2-carbonylimino]-1,3,8-triaza-spiro[4.5]decane-8-carbonyl}-benzenesulfonyl)-piperidine-3-carboxylic acid ethyl ester]
IC50 [1]: 11.5 nM

CC(C)NC(=O)Nc1cccc(C(=O)N2CCC3(CC2)CN/C(=N\C(=O)c2nc(Cl)c(N)nc2N)N3)c1 [Example 43, 3,5-Diamino-6-chloro-pyrazine-2-carboxylic acid [8-[3-(3-isopropyl-ureido)-benzoyl]-1,3,8-triaza-spiro[4.5]dec-(2E)-ylidene]-amide]
IC50 [1]: 13 nM

Nc1nc(N)c(C(=O)/N=C2\NCC3(CCN(C(=O)NCCCc4ccccn4)CC3)N2)nc1Cl [Example 228, 2-[(E)-3,5-Diamino-6-chloro-pyrazine-2-carbonylimino]-1,3,8-triaza-spiro[4.5]decane-8-carboxylic acid (3-pyridin-2-yl-propyl)-amide]
IC50 [1]: 93.5 nM

Nc1nc(N)c(C(=O)/N=C2\NC[C@H](CCCNC(=O)NCc3ccccc3)N2)nc1Cl [Example 32, 3,5-Diamino-6-chloro-pyrazine-2-carboxylic acid [(S)-4-[3-(3-benzyl-ureido)-propyl]-imidazolidin-(2E)-ylidene]-amide]
IC50 [1]: 18 nM

Nc1nc(N)c(C(=O)/N=C2/NC[C@@H](CCCc3ccc(OC[C@@H](O)CO)cc3)N2)nc1Cl [Example 19, 3,5-Diamino-6-chloro-pyrazine-2-carboxylic acid [(R)-4-{3-[4-((S)-2,3-dihydroxy-propoxy)-phenyl]-propyl}-imidazolidin-(2Z)-ylidene]-amide]
IC50 [1]: 18 nM

CC(C)COC1CCN(S(=O)(=O)c2cccc(C(=O)N3CCC4(CC3)CN/C(=N\C(=O)c3nc(Cl)c(N)nc3N)N4)c2)CC1 [Example 126, 3,5-Diamino-6-chloro-pyrazine-2-carboxylic acid [8-[3-(4-isobutoxy-piperidine-1-sulfonyl)-benzoyl]-1,3,8-triaza-spiro[4.5]dec-(2E)-ylidene]-amide]
IC50 [1]: 25 nM

Nc1nc(N)c(C(=O)/N=C2\NCC3(CCN(C(=O)Cc4nnc(-c5ccccc5)[nH]4)CC3)N2)nc1Cl [Example 42, 3,5-Diamino-6-chloro-pyrazine-2-carboxylic acid [8-[2-(5-phenyl-4H-[1,2,4]triazol-3-yl)-acetyl]-1,3,8-triaza-spiro[4.5]dec-(2E)-ylidene]-amide]
IC50 [1]: 11 nM

Cc1nc(-c2ccccc2)ncc1C(=O)N1CCC2(CC1)CN/C(=N\C(=O)c1nc(Cl)c(N)nc1N)N2 [Example 58, 3,5-Diamino-6-chloro-pyrazine-2-carboxylic acid [8-(4-methyl-2-phenyl-pyrimidine-5-carbonyl)-1,3,8-triaza-spiro[4.5]dec-(2E)-ylidene]-amide]
IC50 [1]: 143 nM

CC(=O)N[C@@H](Cc1ccc(OC(C)C)cc1)C(=O)N1CCC2(CC1)CN/C(=N\C(=O)c1nc(Cl)c(N)nc1N)N2 [Example 185, 3,5-Diamino-6-chloro-pyrazine-2-carboxylic acid [8-[(S)-2-acetylamino-3-(4-isopropoxy-phenyl)-propionyl]-1,3,8-triaza-spiro[4.5]dec-(2E)-ylidene]-amide]
IC50 [1]: 62 nM

Cn1ccc2cc(S(=O)(=O)N3CCC4(CC3)CN/C(=N\C(=O)c3nc(Cl)c(N)nc3N)N4)ccc21 [Example 235, 3,5-Diamino-6-chloro-pyrazine-2-carboxylic acid [8-(1-methyl-1H-indole-5-sulfonyl)-1,3,8-triaza-spiro[4.5]dec-(2E)-ylidene]-amide]
IC50 [1]: 364 nM
